Results reported in US9394338B2, “Glutathione analogs and uses thereof” (REGENTS OF THE UNIVERSITY OF MINNESOTA, priority 2011, dated 2016).

Columns and labels:
Assay type in all cases: in vivo
[1] = test system: APP/PS1 mice; assay: Brain protein carbonyl determination
Method: (§1) Efficacy Study Design. To determine the effect of intraperitoneal and oral Ψ-GSH treatment, the study was divided in four groups (10 mice/group). 1. APP/PS1 mice-vehicle control, 2. APP/PS1 mice-Ψ-GSH i.p. 500 mg/kg, 3. APP/PS1 mice-Ψ-GSH oral 500 mg/kg, 4. Non-transgenic wild type mice-vehicle control. All the animals in the above-said groups were treated with saline or Ψ-GSH three times a week for 12 weeks, starting at the age of three to four months. Eleven weeks after the start of the treatment, the animals were tested in the Morris water maze, and twelve weeks after the start of the treatment, the animals were sacrificed for histopathological analysis.
Protein Carbonyl Determination. Brains were homogenized in cold buffer (50 mM phosphate, pH 7.0, containing 1 mM EDTA containing protease inhibitors) and centrifuged at 10,000×g for 15 min at 4° C. The supernantent was mixed with 0.5 ml of 10 mM 2,4-dinitrophenylhydrazine (DNPH)/2 M HCL (or 2 M HCl alone for blanks). Samples were placed in a sample holder and incubated in the dark at room temperature for one hour vortexing intermittently. […] The concentration of DNPH was determined at its maximum wavelength (360 nm) and the molar absorption coefficient of 22,000 M^−1 cm^−1 was used to quantify the levels of protein carbonyls. Total protein concentration was determined by BCA protein assay kit (Pierce, Rockford, Ill.). […]

[2] = test system: APP/PS1 mice; assay: Brain lipid peroxidation (TBARS) assay
Method: as §1
Lipid Peroxidation Assay. The levels of lipid peroxidation were quantified by the thiobarbituric acid-reactive substances (TBARS) assay. Brain homogenate was treated with 2 ml of (1:1:1) ratio (TBA) thiobarbituric acid -(TCA) trichloroacetic acid -(HCl) chloridic acid reagent (TBA 0.37%, 0.25 N HCL and 15% TCA) and placed in water bath for 15 min, cooled and centrifuged and then clear supernatant was measured at 535 nm against reference blank. Protein was determined by the BCA protein assay kit. TBARS were normalized to the protein content in each sample and then expressed as percentage of the corresponding values in non-transgenic saline controls.

[3] = test system: APP/PS1 mice; assay: Brain ROS assay (DCFH-DA)
Method: as §1
ROS Assay. ROS levels were quantified via the 2′-7′-dichlorofluorescein-diacetate (DCFH-DA) assay. […] The reaction was then stopped by placing it on ice and the formation of oxidized fluorescent 2′-7′-dichlorofluorescein (DCF) was measured with a fluorescence plate reader (BioTek SynergyHT, VT, USA) using excitation and emission wavelengths at 488 and 525 nm, respectively. The final results were corrected for protein concentration and then expressed as percentage of the corresponding values in saline treated wild-type mice. All steps were performed in the dark and DCF formation was also monitored immediately after DCFH-DA was added to the homogenate (t=0 min) in order to subtract background autofluorescence.

[4] = test system: APP/PS1 mice; assay: Amyloid-β1-42 ELISA of brain homogenate
Method: as §1
Amyloid-β1-42 ELISA. Total Aβ^1-42 in the brain was quantified by sandwich ELISA (Invitrogen, Carlsbad, Calif.) according to the manufacturer's instructions. Wild type and transgenic Alzheimer's mice brains were Dounce homogenized in phosphate buffered saline (PBS), pH 7.2, containing a mixture of protease inhibitors. Brain homogenates were centrifuged and supernatants were assayed for soluble Aβ^1-42 per manufacturers' protocols. […] The concentration of both PBS soluble and insoluble (guanidine soluble) Aβ^1-42 was calculated from a standard curve of human Aβ^1-42 and was normalized to the weight of the tissue employed.

[5] = test system: Swiss Webster Mice; assay: ACP (acetaminophen) overdose rescue and effects on normal liver
Method: 36-Male Swiss Webster Mice (HSD) were fasted over-night and then brought to the lab at 8:00 am the following day and weighed. Food was kept out of the cages until after the final drug injection. Mice were divided into treatment groups as below in Table 2.
Thirty minutes post overdose with 370 mg/kg ACP, the following were evaluated for the groups in Table 2:
N-acetylcysteine (NAC) at 7.35 mmol/kg;
Ψ-GSH at three different doses, 3.67, 2.45 and 1.22 mmol/kg; and
examine effects of Ψ-GSH on normal liver at rescue doses.

N[C@@H](CNC(=O)N[C@@H](CS)C(=O)NCC(=O)O)C(=O)O [Ψ-GSH, γ-Gla-Cys-Gly-OH]
Protein carbonyls in brain (WT saline = 100%) ([1]; i.p.): 97.8±6.30%
levels of protein carbonylation ([1]; oral): unaffected
TBARS levels in brain (WT saline = 100%) ([2]; i.p.): 95.3±5.51%
levels of lipid peroxidation ([2]; oral): unaffected
total brain ROS levels, increase over WT mice ([3]; i.p.): 6%
levels of ROS ([3]; oral): unaffected
insoluble Aβ1-42 in brain ([4]; i.p.): 45.4±6.01 % of vehicle-treated APP/PS1 mice
insoluble Aβ1-42 concentration in brain ([4]; oral): 90.80±6.72 % of vehicle treated APP/PS1 mice
liver histopathology after ACP overdose ([5]; 370 mg/kg ACP + rescue agent): absence of necrotic tissue
ALT levels after ACP overdose ([5]; 370 mg/kg ACP, rescue 30 min later at half molar equivalent of NAC): decrease in ALT levels comparable to that caused by NAC
tolerability when given alone ([5]; mouse, in vivo): safe and well tolerated
